Results reported in patent publication US20220168392A1 (priority 2019, published 2022).
Square brackets hold non-standard residues; d marks the D form. * marks the point of attachment. 2Nal = N[C@@H](Cc1ccc2ccccc2c1)C(=O)O; Propionyl = CCC(=O)*; Sar = CNCC(=O)O

Columns and labels:
healthy rhesus monkeys = assay: Maximum platelet count to baseline in healthy rhesus monkeys, escalating doses; assay type: in vivo, rhesus monkey; parameters: key to pharmacodynamics (PD) effect class of the dose (beneficial effects on survival): **: large pharmacodynamics (PD) effect; *: modest effect
Procedure: A pilot PK/PD study was performed to evaluate the efficacy of RWJ-800088 in rhesus monkeys (Study No. 2016-2693—CiToxLAB North America). Rhesus monkeys (n=10/group, 5 male/5 female) were treated with vehicle or RWJ-800088 (a single dose of 30 mg/kg RWJ-800088) administered 24 hours post TBI gamma radiation (600 cGY). […] The ratio of the maximum platelet count to baseline following escalating doses of RWJ-800088 to healthy rhesus monkeys is as follows: 0.97±0.06× at 0.5 mg/kg, 1.08±0.15× at 2 mg/kg, 1.98±0.16× at 10 mg/kg, 2.9±0.03× at 20 mg/kg, and 3.83±0.11× at 40 mg/kg).
The ratio of the maximum platelet counts to the baseline platelet counts following single escalating doses of RWJ-800088 to mice, rats, dogs, rhesus monkeys and human healthy volunteers is shown in Table 5. The dose required to achieve a 2-3.5-fold elevation in humans is ˜100-fold lower compared to mice, ˜1,000-fold lower compared to rats and >10,000-fold lower compared to canines and NHPs. […] The species differences in potency has been described for other TPO mimetics in the literature and is attributed to differences in receptor affinity (Erickson-Miller C L, et al. Discovery and characterization of a selective, nonpeptidyl thrombopoietin receptor agonist. Exp. Hematol. 2005; 33:85-93). […] It is discovered that the dose of RWJ-800088 that produces a survival benefit and protects against vascular and organ injury is the dose that produces a 2-4 fold elevation of platelets (Table 6).

[1] = tested on: female rats exposed to LD70 total body gamma radiation; assay: Rat whole body irradiation study; assay type: in vivo
Procedure: FIGS. 16A-B show the percent survival in female SD Rats (n=8/group) administered RWJ-800088 (TPOm) at different time points and dose levels—FIG. 16A: 3000 μg/kg at 6, 24 and 48 hours post TBI (7.18 Gy), and FIG. 16B: 300 and 3000 μg/kg at 24 hours post TBI (7.18 Gy).
RWJ-800088 was administered at a 3000 μg/kg dose by SC injection to female rats (n=8) at 6, 24, or 48 hours and additionally 300 μg/kg dose at 24 hours after exposure to an LD70 total body dose of gamma radiation (Gammacell 3000 irradiator).

[2] = tested on: subjects with cancer receiving platinum-based chemotherapy; assay: Study NAP1002: cancer patients receiving platinum-based chemotherapy; assay type: in vivo, human
Procedure: In the second randomized, double-blind Phase 1 study (NAP1002), 46 subjects with cancer receiving platinum-based chemotherapy were enrolled into 3 cohorts: 12 subjects received 1.5 μg/kg RWJ-800088, 12 subjects received 2.25 μg/kg, 10 subjects received 3 μg/kg, and 12 subjects received placebo within 2 hours before administration of platinum-based chemotherapy on Day 1 of the first of 2 chemotherapy cycles. There was a 21-day interval between each chemotherapy cycle.

**Q.** Which results are given for “methoxypolyethyleneglycol20000-propionyl-L-Isoleucyl-L-Glutamyl-Glycyl-L-Prolyl-L-Threonyl-L-Leucyl-L-Arginyl-L-Glutaminyl-L-2-Naphthylalanyl-L-Leucyl-L-Alanyl-L-Alanyl-L-Arginyl-Sarcosyl-Ne-(methoxypolyethyleneglycol20000-propionyl-L-Isoleucyl-L-Glutamyl-Glycyl-L-Prolyl-L-Threonyl-L-Leucyl-L-Arginyl-L-Glutaminyl-L-2-Naphthylalanyl-L-Leucyl-L-Alanyl-L-Alanyl-L-Arginyl-Sarcosyl-)-Lysinamide ({mPEG 20 kDa-Propionyl}-IEGPTLRQ[2Nal]LAAR[Sar]K-NH2; also: dimer: second identical mPEG-propionyl chain on Lys Nε of C-terminal lysinamide) [RWJ-800088]”?
**A.** ratio of the maximum platelet count to baseline (healthy rhesus monkeys; 0.5 mg/kg): 0.97±0.06 ×; ratio of the maximum platelet count to baseline (healthy rhesus monkeys; 2 mg/kg): 1.08±0.15 ×; ratio of the maximum platelet count to baseline (healthy rhesus monkeys; 10 mg/kg): 1.98±0.16 ×; ratio of the maximum platelet count to baseline (healthy rhesus monkeys; 20 mg/kg): 2.9±0.03 ×; ratio of the maximum platelet count to baseline (healthy rhesus monkeys; 40 mg/kg): 3.83±0.11 ×; NHP Max Platelet Ratio (healthy rhesus monkeys; CiToxLAB North America Study No. 2016-2693, dose 30000 μg/kg): 3.25; Average of the Maximum Platelet Elevation/Baseline Platelet Counts (healthy rhesus monkeys; Monkey, dose 40000 μg/kg): 3.83; pharmacodynamics (PD) effect class of the dose (beneficial effects on survival) (healthy rhesus monkeys; NHP, dose 30000 μg/kg): *; Dose for 2.0-4x Platelet Elevation in Healthy Subjects (healthy rhesus monkeys; Rhesus): ≥30 mg/kg; NHP Max Platelet Ratio (healthy rhesus monkeys; TOX9795/B201016-K013, dose 500 μg/kg): 0.9 ± 0.1; NHP Max Platelet Ratio (healthy rhesus monkeys; TOX9795/B201016-K013, dose 2000 μg/kg): 1.1 ± 0.1; NHP Max Platelet Ratio (healthy rhesus monkeys; TOX9795/B201016-K013, dose 10000 μg/kg): 2.9 ± 0.0; NHP Max Platelet Ratio (healthy rhesus monkeys; TOX9795/B201016-K013, dose 40000 μg/kg): 3.8 ± 0.1; Effects ([1]; Rats, whole body irradiation, whole wrapped cell: Enhanced survival, mitigation against thrombocytopenia, anemia): Enhanced survival,; survival vs vehicle and RWJ-800088 at 48 hours post-irradiation ([1]; female rats, 3000 μg/kg SC at 6 and 24 hours post TBI (FIG. 16A)): significantly higher; survival, 3000 μg/kg compared with 300 μg/kg ([1]; female rats, 24 hours post irradiation (FIG. 16B)): substantially increased; nadir and peak mean platelet counts vs placebo ([2]; 1.5 μg/kg): similar; day up to which mean platelet counts continued to decline ([2]; 1.5 μg/kg, each cycle): 15 days; platelet nadir and peak platelet counts, fold higher relative to placebo ([2]; 3 μg/kg): approximately 2 fold; day of peak mean platelet counts ([2]; 3.0 μg/kg, both cycles): 15 days; serious adverse event of thrombocythemia (number) ([2]; 1.5, 2.25, and 3 μg/kg): 1; tolerability ([2]; 1.5, 2.25, and 3 μg/kg with platinum-based chemotherapy): well-tolerated; day on which mean platelet counts were lowest ([2]; 2.25 and 3.0 μg/kg, each cycle): 10 days; nadir and peak platelet counts, fold higher than placebo ([2]; 2.25 or 3.0 μg/kg): approximately 2 fold; Maximum Platelet Counts, GMR (Active/Placebo) ([2]; Across cycles, 1.5 μg/kg): 1.0; Maximum Platelet Counts, Geometric Mean ([2]; Across cycles, 1.5 μg/kg): 374760 µL⁻¹; Minimum Platelet Counts, GMR (Active/Placebo) ([2]; Across cycles, 1.5 μg/kg): 0.6; Minimum Platelet Counts, Geometric Mean ([2]; Across cycles, 1.5 μg/kg): 34570 µL⁻¹; Maximum Platelet Counts, GMR (Active/Placebo) ([2]; Across cycles, 2.25 μg/kg): 1.6; Maximum Platelet Counts, Geometric Mean ([2]; Across cycles, 2.25 μg/kg): 574270 µL⁻¹; Minimum Platelet Counts, GMR (Active/Placebo) ([2]; Across cycles, 2.25 μg/kg): 2.7; Minimum Platelet Counts, Geometric Mean ([2]; Across cycles, 2.25 μg/kg): 165790 µL⁻¹; Maximum Platelet Counts, GMR (Active/Placebo) ([2]; Across cycles, 3.0 μg/kg): 1.8; Maximum Platelet Counts, Geometric Mean ([2]; Across cycles, 3.0 μg/kg): 662940 µL⁻¹; Minimum Platelet Counts, GMR (Active/Placebo) ([2]; Across cycles, 3.0 μg/kg): 2.2; Minimum Platelet Counts, Geometric Mean ([2]; Across cycles, 3.0 μg/kg): 134260 µL⁻¹; Maximum Platelet Counts, GMR (Active/Placebo) ([2]; Cycle 1, 1.5 μg/kg): 1.1; Maximum Platelet Counts, Geometric Mean ([2]; Cycle 1, 1.5 μg/kg): 329180 µL⁻¹; Minimum Platelet Counts, GMR (Active/Placebo) ([2]; Cycle 1, 1.5 μg/kg): 0.5; Minimum Platelet Counts, Geometric Mean ([2]; Cycle 1, 1.5 μg/kg): 46800 µL⁻¹; Maximum Platelet Counts, GMR (Active/Placebo) ([2]; Cycle 1, 2.25 μg/kg): 1.9; Maximum Platelet Counts, Geometric Mean ([2]; Cycle 1, 2.25 μg/kg): 564360 µL⁻¹; Minimum Platelet Counts, GMR (Active/Placebo) ([2]; Cycle 1, 2.25 μg/kg): 2.3; Minimum Platelet Counts, Geometric Mean ([2]; Cycle 1, 2.25 μg/kg): 217590 µL⁻¹; Maximum Platelet Counts, GMR (Active/Placebo) ([2]; Cycle 1, 3.0 μg/kg): 2.1; Maximum Platelet Counts, Geometric Mean ([2]; Cycle 1, 3.0 μg/kg): 642690 µL⁻¹; Minimum Platelet Counts, GMR (Active/Placebo) ([2]; Cycle 1, 3.0 μg/kg): 2.0; Minimum Platelet Counts, Geometric Mean ([2]; Cycle 1, 3.0 μg/kg): 188250 µL⁻¹; Maximum Platelet Counts, GMR (Active/Placebo) ([2]; Cycle 2, 1.5 μg/kg): 0.9; Maximum Platelet Counts, Geometric Mean ([2]; Cycle 2, 1.5 μg/kg): 294150 µL⁻¹; Minimum Platelet Counts, GMR (Active/Placebo) ([2]; Cycle 2, 1.5 μg/kg): 0.9; Minimum Platelet Counts, Geometric Mean ([2]; Cycle 2, 1.5 μg/kg): 76170 µL⁻¹; Maximum Platelet Counts, GMR (Active/Placebo) ([2]; Cycle 2, 2.25 μg/kg): 1.3; Maximum Platelet Counts, Geometric Mean ([2]; Cycle 2, 2.25 μg/kg): 401870 µL⁻¹; Minimum Platelet Counts, GMR (Active/Placebo) ([2]; Cycle 2, 2.25 μg/kg): 2.2; Minimum Platelet Counts, Geometric Mean ([2]; Cycle 2, 2.25 μg/kg): 177540 µL⁻¹; Maximum Platelet Counts, GMR (Active/Placebo) ([2]; Cycle 2, 3.0 μg/kg): 1.4; Maximum Platelet Counts, Geometric Mean ([2]; Cycle 2, 3.0 μg/kg): 434100 µL⁻¹; Minimum Platelet Counts, GMR (Active/Placebo) ([2]; Cycle 2, 3.0 μg/kg): 2.2; Minimum Platelet Counts, Geometric Mean ([2]; Cycle 2, 3.0 μg/kg): 179930 µL⁻¹; Change From Baseline in Hemoglobin, Difference of LS Mean (SE) vs Placebo ([2]; Day 42, 1.5 μg/kg): 0.54 g/dL; Change From Baseline in Hemoglobin, LS Mean (SE) ([2]; Day 42, 1.5 μg/kg): −1.63 (0.50) g/dL; Change From Baseline in Hemoglobin, Difference of LS Mean (SE) vs Placebo ([2]; Day 42, 2.25 μg/kg): 0.57 g/dL; Change From Baseline in Hemoglobin, LS Mean (SE) ([2]; Day 42, 2.25 μg/kg): −1.60 (0.42) g/dL; Change From Baseline in Hemoglobin, Difference of LS Mean (SE) vs Placebo ([2]; Day 42, 3.0 μg/kg): 1.00 g/dL; Change From Baseline in Hemoglobin, LS Mean (SE) ([2]; Day 42, 3.0 μg/kg): −1.16 (0.47) g/dL; decrease of mean Hb concentration from baseline ([2]; Day 42, 3.0-μg/kg group): 1.16 g/dL; Change From Baseline in Hemoglobin, Difference of LS Mean (SE) vs Placebo ([2]; Day 63, 1.5 μg/kg): -0.75 g/dL; Change From Baseline in Hemoglobin, LS Mean (SE) ([2]; Day 63, 1.5 μg/kg): −2.98 (0.70) g/dL; Change From Baseline in Hemoglobin, Difference of LS Mean (SE) vs Placebo ([2]; Day 63, 2.25 μg/kg): 0.68 g/dL; Change From Baseline in Hemoglobin, LS Mean (SE) ([2]; Day 63, 2.25 μg/kg): −1.55 (0.61) g/dL; Change From Baseline in Hemoglobin, Difference of LS Mean (SE) vs Placebo ([2]; Day 63, 3.0 μg/kg): 0.79 g/dL; Change From Baseline in Hemoglobin, LS Mean (SE) ([2]; Day 63, 3.0 μg/kg): −1.44 (0.61) g/dL; Change From Baseline in Hemoglobin, Difference of LS Mean (SE) vs Placebo ([2]; Day 84, 1.5 μg/kg): 0.05 g/dL; Change From Baseline in Hemoglobin, LS Mean (SE) ([2]; Day 84, 1.5 μg/kg): −1.88 (0.59) g/dL; Change From Baseline in Hemoglobin, Difference of LS Mean (SE) vs Placebo ([2]; Day 84, 2.25 μg/kg): 0.03 g/dL; Change From Baseline in Hemoglobin, LS Mean (SE) ([2]; Day 84, 2.25 μg/kg): −1.90 (0.55) g/dL; Change From Baseline in Hemoglobin, Difference of LS Mean (SE) vs Placebo ([2]; Day 84, 3.0 μg/kg): 1.13 g/dL; Change From Baseline in Hemoglobin, LS Mean (SE) ([2]; Day 84, 3.0 μg/kg): −0.80 (0.59) g/dL; Effects ([2]; Humans, Phase 1b study, whole wrapped cell: Protection against thrombocytopenia and anemia): Protection against; day of mean peak platelet counts ([2]; lower doses (1.5, 2.25 μg/kg), both cycles): 21 days; transient platelet increase, times the baseline ([2]; two subjects at 3.0 μg/kg, first cycle (stopping criteria)): more than 3 times the baseline
